The text below walks through data of patent US9194863B2, “Treatment of pain” (priority 2011, dated 2015).

SMILES strings stand for the structures.

One assay deals with DRG neurons. The assay is described as follows: Fura-2 intracellular Ca2+ imaging in isolated DRG neurons. The assay is classed as cell-based, mouse. As to conditions: for fraction of sensitive DRG neurons in Trpm3−/− preparations versus Trpm3+/+: Trpm3−/− mice. Here is the method: (§1) Human embryonic kidney cells, HEK293T, were grown in Dulbecco's modified Eagle's medium (DMEM) containing 10% (v/v) human serum, 2 mM L-glutamine, 2 units/ml penicillin, and 2 mg/ml streptomycin at 37° C. in a humidity-controlled incubator with 10% CO2. HEK293T cells were transiently transfected with murine TRPM3α2 (accession number AJ 544535) in the bicistronic pCAGGS/IRES-GFP vector, using Mirus TransIT-293 (Mirus corporation; Madison USA). Transfected cells were visualized by green fluorescence protein (GFP) expression whereas GFP negative cells from the same batch were used as controls. TG and DRG neurons from adult (postnatal weeks 8-12) male mice were isolated as described previously (Karashima et al., 2007). HEK293T cells stably transfected with TRPM3α2 were developed using the Flp-In System (Invitrogen).
(§2) Fura-2-based ratiometric intracellular Ca^2+ measurements were performed as described previously (Vriens et al., 2007). The following procedure was used to distinguish stimulus-induced responses from background variations in fluorescence. First, we calculated the time derivative of the fluorescence ratio (dRatio/dt), and the standard deviation (SD) of dRatio/dt in the absence of any stimulus. A positive response was noted when a stimulus caused an increase of dRatio/dt exceeding 5×SD. […] For every condition, a minimum of 100 cells derived from at least three separated isolations and in at least twelve independent measurements were analyzed.

The target in assay [1] is T1, TRPV1 (Homo sapiens, UniProt Q8NER1).
T1 construct: expressed in transfected cells; host or cells: HEK293T, transient
The assay is described as follows: Ca2+ imaging of TRPV1-mediated responses in the presence of AMG 9810. The assay is classed as cell-based.

Assay [2] deals with T2, TRPM3 (Mus musculus, UniProt J9SQF3). The assay is described as follows: Ca2+ imaging of TRPM3-mediated responses in the presence of AMG 9810. In kind it is cell-based. Here is the method:
as §2

The subject of assay [3] is TG neurons. The assay is described as follows: Fura-2 intracellular Ca2+ imaging in isolated TG neurons. The assay is classed as cell-based, mouse. As to conditions: for fraction of sensitive TG neurons in Trpm3−/− preparations versus Trpm3+/+: Trpm3−/− mice. Here is the method:
as §1, §2

For assay [4], the system named is TG neurons. The assay is described as follows: Whole-cell patch-clamp on TG neurons. The assay is classed as cell-based, mouse. Here is the method: (§3) Whole-cell membrane currents were measured with an EPC-10 (HEKA Elektronik, Lambrecht, Germany). The sampling rate was 20 kHz and currents were digitally filtered at 2.9 kHz. For recordings on HEK293T cells, the extracellular solution contained (in mM): 138 NaCl, 5.4 KCl, 2 MgCl2, 2 CaCl2, 10 glucose, 10 HEPES (pH 7.2 with NaOH), and the pipette solution contained (in mM): 100 CsAsp, 45 CsCl, 10 EGTA, 10 HEPES, 1 MgCl (pH 7.2 with CsOH). For recordings on sensory neurons, the extracellular solution contained (in mM): 140 NaCl, 4 KCl, 2 MgCl2, 100 nM TTX, 10 TRIS (pH 7.4 with HCl), and the pipette solution contained (in mM): 140 CsCl, 0.6 MgCl2, 1 EGTA, 10 HEPES, 5 TEA (pH 7.2 with CsOH). To determine the I-V relationship of PS induced currents in neurons, all measurements were performed under monovalent free extracellular conditions in order to suppress other cationic conductances present in DRG neurons. The extracellular solution contained in mM 2 CaCl2, 2 MgCl2, 10 HEPES, 280 D-Mannitol (pH 7.2 with NMDG).
For orientation: The patch-clamp technique gives a direct electrical read-out from membranes.

Assay [5] relates to mice. The assay is described as follows: Nocifensive behavior after injection into the plantar skin of the hind paw. The assay is classed as in vivo, mouse. Here is the method:
(§4) Hind paw injections, drinking tests, thermal gradient tests, temperature choice tests, hot plate, cold plate, tail clip and tail immersion assays were performed as previously described (Cao et al., 1998; Caterina et al., 2000; Karashima et al., 2009; Mocrich et al., 2005). To evoke inflammatory hyperalgesia, Complete Freund's Adjuvant (CFA, Sigma) (50 μl) was injected intraplantarly in both hindpaws 24 h before behavioral testing. Corn oil was used as vehicle control. To obtain pharmacological inhibition of TRPV1, AMG 9810 (Tocris Bioscience) dissolved in DMSO was injected i.p at 3 mg/kg during consecutive 7 days (Gavva et al., 2007; Gavva et al., 2005). DMSO was used as vehicle control. All animal experiments were carried out in accordance with the European Union Community Council guidelines and were approved by the local ethics committee.

Assay [6] concerns mice. The assay is described as follows: Aversive drinking test. The assay is classed as in vivo, mouse. To be noted: PS 750 μM in drinking water. Here is the method:
To evaluate the contribution of TRPM3 to trigeminal nociception, we used an aversive drinking test (Caterina et al., 2000). Over a period of 3 days, mice were allowed to drink from a bottle of water for only 1 hour/day. On the fourth day, this solution was supplemented with PS (750 μM). In Trpm3^+/+ mice, this evoked a modest but significant aversion, as evidenced by a 30% reduction in consumed water volume (FIG. 4C).
as §4

Assay [7] concerns the target T3, TRPM3α2 (Mus musculus, UniProt J9SQF3).
T3 construct: expressed in transfected cells; host or cells: HEK293T, transient
The assay is described as follows: Intracellular Ca2+ responses in HEK293T cells transiently expressing TRPM3. As to conditions: PS 20 μM, capsaicin 2 μM. In kind it is cell-based, murine. Here is the method: as §1
(§5) Fura-2-based ratiometric intracellular Ca^2+ measurements were performed as described previously (Vriens et al., 2007). The following procedure was used to distinguish stimulus-induced responses from background variations in fluorescence. First, we calculated the time derivative of the fluorescence ratio (dRatio/dt), and the standard deviation (SD) of dRatio/dt in the absence of any stimulus. […] For every condition, a minimum of 100 cells derived from at least three separated isolations and in at least twelve independent measurements were analyzed.

Assay [8] concerns the target T3, TRPM3α2. The assay is described as follows: 96 well plate Fluo-4 assay of temperature-dependent Ca2+ responses, HEK293T stably expressing TRPM3. In kind it is cell-based, murine. To be noted: PS at 10 μM. Here is the method:
To determine an average temperature-response relation for TRPM3, we also used a fluo-4-based assay using 96 well plates and the 7500 Real-Time PCR system (Applied Biosystems). HEK293T cells stably expressing murine TRPM3α2 (FIG. 9B) or non transfected HEK293T cells were loaded with Fluo-4-AM for 30 min, trypsinized, centrifuged, resuspended in a solution containing (in mM) 150 NaCl, 6 KCl, 2 MgCl2, 2 CaCl2, and 10 HEPES (pH 7.4 with NaOH) and transferred to a 96-well plate (at 15000-25000 cells/well; 50 μl). When indicated, PS (10 μM) was added to the wells. Fluo-4 fluorescence was measured while the well temperature was raised from 16 to 43° C. in 3-degrees steps. Background-subtracted fluorescence signals were used to calculate temperature-induced changes in fluorescence as ΔF/F16 °C, where F16 °C is the background corrected fluorescence at 16° C. and ΔF=F−F16 °C. The neurosteroids pregnenolone sulphate, progesterone and the TRPV1 activator capsaicin (all Sigma) were applied at indicated concentrations from a respectively 100 mM, 250 mM and 10 mM stock solution in DMSO.

Assay [9] addresses T2, TRPM3. The assay is described as follows: Intracellular Ca2+ increase by low doses of PS at room temperature and 37° C., HEK293T stably expressing TRPM3. In kind it is cell-based, murine. The arrangement: expressed in transfected cells. To be noted: 100 nM PS. Here is the method:
as §1, §5

In assay [10] the target is T2, TRPM3. The assay is described as follows: Whole-cell current measurements in TRPM3-expressing HEK293T cells. In kind it is cell-based, murine. On the set-up: expressed in transfected cells. To be noted: PS 5 μM. Here is the method:
as §3

Assay [11] has as its target T1, TRPV1. The assay is described as follows: Intracellular Ca2+ responses in HEK293T cells transiently expressing TRPV1. The assay is classed as cell-based. As to conditions: PS 20 μM, capsaicin 2 μM. Here is the method:
as §2

The target of another assay is TRPA1 (Homo sapiens, UniProt O75762). As to conditions: read-out: EC50 as agonist of TRPA1; cited from earlier work.
In assay [12] the target is T2, TRPM3. To be noted: cited from earlier work.
[13] abbreviates: Trpv1−/−, Trpa1−/− and combined Trpv1−/−/Trpa1−/− mice.
Where [14] appears, read: Trpm3+/+ mice, PS 2.5 and 5 nmol/paw, progesterone 25 nmol/paw.

T2 sequence (J9SQF3 1-1709 isoform J9SQF3-12): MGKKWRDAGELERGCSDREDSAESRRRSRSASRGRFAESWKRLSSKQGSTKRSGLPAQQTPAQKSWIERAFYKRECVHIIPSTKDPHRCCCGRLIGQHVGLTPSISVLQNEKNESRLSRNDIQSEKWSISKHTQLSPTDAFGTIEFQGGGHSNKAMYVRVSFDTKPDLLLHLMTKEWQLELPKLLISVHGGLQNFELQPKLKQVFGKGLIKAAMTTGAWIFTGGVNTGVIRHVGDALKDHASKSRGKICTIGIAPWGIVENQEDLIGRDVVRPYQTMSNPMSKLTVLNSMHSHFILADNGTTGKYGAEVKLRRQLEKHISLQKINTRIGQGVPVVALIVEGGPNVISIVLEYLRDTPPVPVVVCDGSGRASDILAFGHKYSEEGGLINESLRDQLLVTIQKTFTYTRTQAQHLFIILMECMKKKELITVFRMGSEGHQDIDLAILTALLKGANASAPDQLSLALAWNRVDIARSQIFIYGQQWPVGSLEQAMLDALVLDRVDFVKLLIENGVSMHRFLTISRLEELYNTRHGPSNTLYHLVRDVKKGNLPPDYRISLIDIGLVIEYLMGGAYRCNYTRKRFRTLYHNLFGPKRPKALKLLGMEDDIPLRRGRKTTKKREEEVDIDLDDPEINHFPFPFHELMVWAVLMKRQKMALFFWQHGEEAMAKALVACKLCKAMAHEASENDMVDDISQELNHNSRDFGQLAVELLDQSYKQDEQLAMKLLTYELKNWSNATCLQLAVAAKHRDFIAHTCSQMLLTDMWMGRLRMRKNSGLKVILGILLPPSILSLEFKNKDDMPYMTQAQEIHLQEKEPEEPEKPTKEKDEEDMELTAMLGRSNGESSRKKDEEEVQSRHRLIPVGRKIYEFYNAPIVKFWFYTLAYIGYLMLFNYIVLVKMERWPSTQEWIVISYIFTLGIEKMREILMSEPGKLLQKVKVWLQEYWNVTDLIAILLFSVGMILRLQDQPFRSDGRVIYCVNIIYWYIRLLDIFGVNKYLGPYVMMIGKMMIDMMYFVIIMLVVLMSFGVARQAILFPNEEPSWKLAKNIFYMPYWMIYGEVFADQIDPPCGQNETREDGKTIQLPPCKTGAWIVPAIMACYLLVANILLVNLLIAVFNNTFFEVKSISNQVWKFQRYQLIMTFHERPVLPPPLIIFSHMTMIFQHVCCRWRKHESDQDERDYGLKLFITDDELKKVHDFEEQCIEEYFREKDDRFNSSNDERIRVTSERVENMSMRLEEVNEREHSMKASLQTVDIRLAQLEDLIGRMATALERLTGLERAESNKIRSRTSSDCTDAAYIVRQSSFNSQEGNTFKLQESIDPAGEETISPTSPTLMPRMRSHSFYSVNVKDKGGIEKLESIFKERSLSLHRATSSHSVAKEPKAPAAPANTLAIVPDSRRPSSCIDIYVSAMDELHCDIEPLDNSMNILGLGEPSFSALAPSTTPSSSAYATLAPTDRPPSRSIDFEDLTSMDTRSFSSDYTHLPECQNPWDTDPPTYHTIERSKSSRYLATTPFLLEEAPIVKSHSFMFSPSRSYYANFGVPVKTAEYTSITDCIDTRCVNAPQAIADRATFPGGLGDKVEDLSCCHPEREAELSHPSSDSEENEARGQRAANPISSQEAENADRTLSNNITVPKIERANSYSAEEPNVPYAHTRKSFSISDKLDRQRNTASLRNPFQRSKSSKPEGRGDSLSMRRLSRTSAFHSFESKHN
T3 sequence (J9SQF3 1-1709 isoform J9SQF3-12): as above
T1 sequence (Q8NER1 whole entry, species assumed): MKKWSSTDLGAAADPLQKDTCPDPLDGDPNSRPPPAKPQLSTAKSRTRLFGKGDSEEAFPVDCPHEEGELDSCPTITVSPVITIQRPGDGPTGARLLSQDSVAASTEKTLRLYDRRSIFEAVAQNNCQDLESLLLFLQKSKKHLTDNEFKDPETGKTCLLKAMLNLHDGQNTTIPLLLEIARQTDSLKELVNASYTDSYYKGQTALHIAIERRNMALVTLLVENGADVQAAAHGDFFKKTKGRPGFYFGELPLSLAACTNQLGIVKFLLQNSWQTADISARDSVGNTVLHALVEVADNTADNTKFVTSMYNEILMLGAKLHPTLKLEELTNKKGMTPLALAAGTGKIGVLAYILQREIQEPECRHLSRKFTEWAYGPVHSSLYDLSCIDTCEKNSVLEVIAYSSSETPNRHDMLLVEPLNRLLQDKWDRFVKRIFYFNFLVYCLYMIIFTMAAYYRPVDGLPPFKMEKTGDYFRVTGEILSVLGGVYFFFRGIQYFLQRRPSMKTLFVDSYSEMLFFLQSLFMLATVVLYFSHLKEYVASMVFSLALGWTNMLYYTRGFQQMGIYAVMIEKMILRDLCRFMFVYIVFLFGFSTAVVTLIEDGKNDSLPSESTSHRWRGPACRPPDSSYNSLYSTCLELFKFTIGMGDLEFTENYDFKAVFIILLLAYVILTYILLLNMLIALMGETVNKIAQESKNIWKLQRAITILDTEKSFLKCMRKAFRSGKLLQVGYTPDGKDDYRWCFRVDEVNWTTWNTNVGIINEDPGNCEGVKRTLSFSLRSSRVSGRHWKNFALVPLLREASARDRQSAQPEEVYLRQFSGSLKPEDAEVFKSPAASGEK
Sequence of TRPA1 (O75762 whole entry, species assumed): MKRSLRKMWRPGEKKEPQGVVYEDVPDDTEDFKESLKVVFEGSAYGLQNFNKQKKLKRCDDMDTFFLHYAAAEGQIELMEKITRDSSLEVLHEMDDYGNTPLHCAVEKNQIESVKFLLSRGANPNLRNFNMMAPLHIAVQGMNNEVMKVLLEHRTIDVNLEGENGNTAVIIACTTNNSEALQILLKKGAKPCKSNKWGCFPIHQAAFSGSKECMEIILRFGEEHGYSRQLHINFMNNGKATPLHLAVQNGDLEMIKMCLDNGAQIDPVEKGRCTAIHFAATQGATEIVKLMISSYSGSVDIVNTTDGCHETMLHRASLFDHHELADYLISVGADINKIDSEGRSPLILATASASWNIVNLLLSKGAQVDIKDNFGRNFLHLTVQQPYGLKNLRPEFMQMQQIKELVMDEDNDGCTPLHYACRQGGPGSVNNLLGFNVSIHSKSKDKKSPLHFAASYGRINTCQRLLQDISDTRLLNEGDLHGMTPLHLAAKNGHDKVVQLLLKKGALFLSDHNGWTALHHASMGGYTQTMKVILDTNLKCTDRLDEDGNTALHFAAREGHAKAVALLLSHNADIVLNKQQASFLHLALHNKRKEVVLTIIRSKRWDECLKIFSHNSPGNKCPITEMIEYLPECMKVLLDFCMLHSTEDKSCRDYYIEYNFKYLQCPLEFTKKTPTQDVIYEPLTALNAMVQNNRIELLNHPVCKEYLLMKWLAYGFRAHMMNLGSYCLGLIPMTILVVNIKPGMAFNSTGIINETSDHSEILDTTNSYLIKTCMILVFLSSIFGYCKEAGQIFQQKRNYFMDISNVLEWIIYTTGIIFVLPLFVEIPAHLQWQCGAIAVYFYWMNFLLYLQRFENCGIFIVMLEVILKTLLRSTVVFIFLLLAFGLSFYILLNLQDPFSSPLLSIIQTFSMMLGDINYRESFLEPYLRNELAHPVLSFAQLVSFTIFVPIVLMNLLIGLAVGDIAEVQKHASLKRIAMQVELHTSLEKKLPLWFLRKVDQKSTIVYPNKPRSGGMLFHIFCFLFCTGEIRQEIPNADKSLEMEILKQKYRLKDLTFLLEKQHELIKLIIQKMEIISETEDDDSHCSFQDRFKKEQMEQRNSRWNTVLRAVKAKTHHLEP

Take `CC(C)(C)c1ccc(/C=C/C(=O)Nc2ccc3c(c2)OCCO3)cc1` [AMG 9810, (E)-3-(4-t-butylphenyl)-N-(2,3-dihydrobenzo[b][1,4]dioxin-6-yl)acrylamide]: in the assay with DRG neurons (AMG 9810 5 μM), the “effect on percentage of heat responders in DRG neurons” value is “significantly reduced”. The “effect on capsaicin responses in DRG neurons” value in the assay on DRG neurons (AMG 9810 5 μM, Trpm3+/+ and Trpm3−/− DRG neurons) is reported as “completely eliminated”. Besides, the “heat-responsive cells remaining after treatment” value in the assay with DRG neurons (Trpm3−/− neurons, AMG 9810 5 μM) is “substantial fraction of heat-responsive cells”. The “TRPV1-mediated heat (42° C.) and capsaicin (2 μM) responses” value at TRPV1 [1] is given as “full inhibition”. Moreover, the “TRPM3-mediated heat (42° C.) and PS (40 μM) responses” value on TRPM3 [2] is “unaltered”.
Consider `C=CCN=C=S` [MO, mustard oil], for which, in the assay with DRG neurons, the “fraction of sensitive DRG neurons in Trpm3−/− preparations versus Trpm3+/+” value was “not changed”. Also, the “fraction of sensitive TG neurons in Trpm3−/− preparations versus Trpm3+/+” value in the assay with TG neurons [3] was “not changed”.
Take `CC(=O)C1CCC2C3CC=C4CC(OS(=O)(=O)O)CCC4(C)C3CCC12C` (centres unmarked) [PS, pregnenolone sulphate]: in the assay on DRG neurons (Trpm3+/+ mice, n=303, PS 10 μM), the “DRG neurons with robust and reversible calcium signals” value was 58%. Besides, in the assay with DRG neurons, the “fraction of sensitive DRG neurons in Trpm3−/− preparations versus Trpm3+/+” value was “drastically decreased”. In addition, the “responses in DRG neurons from TRPV1/TRPA1 knockout mice” value in the assay with DRG neurons (setting [13]) is “conserved”. Besides, the “TG neurons with robust and reversible calcium signals” value in the assay with TG neurons [3] (Trpm3+/+ mice, n=273, PS 10 μM) is 57%. Also, the “fraction of sensitive TG neurons in Trpm3−/− preparations versus Trpm3+/+” value in the assay on TG neurons [3] is given as “drastically decreased”. The “responses in TG neurons from TRPV1/TRPA1 knockout mice” value in the assay with TG neurons [3] (setting [13]) is listed as “conserved”. The “TG neurons with inward currents of more than 10 pA” value in the assay with TG neurons [4] (Trpm3+/+ mice, 15 of 23) is on record as 65%; in the assay on TG neurons [4] (Trpm3−/− mice, 0 of 21), “never observed”; in the assay on TG neurons [4] (Trpv1−/−/Trpa1−/− mice, 9 of 17), 53%. Moreover, the “nocifensive behavior (paw licking and lifting)” value (shortened to “nocifensive behavior”) in the assay on mice [5] (setting [14]) is given as “evoked strong nocifensive behavior”; in the assay on mice [5] (Trpm3−/− mice), “completely lacked this nocifensive response”; in the assay with mice [5] (combined Trpv1−/−/Trpa1−/− knockout mice) it was “elicited a nocifensive response that was similar to that observed in Trpm3^+/+ mice”. Moreover, in the assay with mice [6] (Trpm3+/+ mice), the “reduction in consumed water volume” value is 30%. Also, the “aversive response in drinking test” value with mice [6] (Trpm3−/− mice) is “no aversive response”. At TRPM3α2 [7], the “intracellular Ca2+ response of TRPM3-expressing cells” value was “robust responses”. The “shift of the thermal response profile to lower temperatures” value on TRPM3α2 [8] was 6.1±0.4 degrees. Also, the “Ca2+ response to PS” value is “evoked robust responses” at TRPM3 [9] (37° C.) and “subthreshold” at TRPM3 [9] (room temperature). In addition, the “current response to a low dose of PS at higher temperatures” value on TRPM3 [10] is reported as “strongly potentiated”.
Take `COc1cc(CNC(=O)CCCC/C=C/C(C)C)ccc1O` [capsaicin]: the “fraction of sensitive DRG neurons in Trpm3−/− preparations versus Trpm3+/+” value in the assay on DRG neurons is given as “not changed”. Moreover, the “fraction of sensitive TG neurons in Trpm3−/− preparations versus Trpm3+/+” value in the assay on TG neurons [3] is “not changed”. Besides, the “TG neurons responding to capsaicin” value is given as 57% with TG neurons [4] (Trpm3+/+ mice, 13 of 23) and 53% in the assay with TG neurons [4] (Trpm3−/− mice, 11 of 21). In addition, the “nocifensive behavior” value with mice [5] (Trpm3−/− mice) was “evoked the normal nocifensive behavior”. Also, the “intracellular Ca2+ response of TRPM3-expressing cells” value at TRPM3α2 [7] is listed as “insensitive”. For the same compound, the “intracellular Ca2+ response of TRPV1-expressing cells” value on TRPV1 [11] was “responded”.
Turning to `COC(=O)C1=C(C)NC(C)=C(C(=O)OC)C1c1ccccc1[N+](=O)[O-]` [nifedipine], the 50% effective concentration (EC50) – broadly, the midpoint of the concentration-response curve – on TRPA1 was 0.4 µM; at TRPM3 [12] (read-out: EC50 as agonist of TRPM3), 30 µM.
As for `CC(=O)[C@H]1CC[C@H]2[C@@H]3CCC4=CC(=O)CC[C@]4(C)[C@H]3CC[C@]12C` [progesterone], the “nocifensive behavior” value in the assay on mice [5] (setting [14]) and in the assay with mice [5] (Trpm3−/− mice) was “did not evoke measurable nociceptive responses” each time. For the same compound, the TRPM3 agonist activity entry on TRPM3 [12] is “no TRPM3 agonist activity”.
